In patent US20110054040A1, “Bicyclic Triterpenoid Iripallidal as a Novel Anti-Glioma and Anti-Neoplastic Therapy” (DEPARTMENT OF BIOTECHNOLOGY, priority 2008, published 2011):
Read-outs that look alike come from different tables or passages of the source.

What was measured:
[1] = test system: ERK1/2; conditions: downstream indicator of Ras activation, cited from earlier work
[2] = test system: MCF-7, HeLa, HepG2, THP1, HT-29 cells; experiment: MTS cell viability assay, breast, cervical, hepatocellular, myeloid leukemia and colon cancer cell lines; assay type: cell-based, human
Method: In another embodiment colon cancer cell line HT29, breast cancer line MCF-7, cervical cancer cell line HeLa, hepatocellular carcinoma cell line HepG2 and acute myeloid leukemic cell line THP1 were treated with different concentration of Iripallidal (in Dimethyl sulphoxide, DMSO) in serum free media for 24 hours and cell viability was assessed using the MTS assay. Values were expressed as a percentage relative to those obtained in controls.
Glioblastoma cell lines U87MG, A172, T98G, and LN229; breast cancer cell line MCF7, cervical cancer cell line HeLa, hepatocellular carcinoma cell line HepG2, acute myeloid leukemia THP1, colon carcinoma cell line HT-29 and acute myeloid leukemic cell line THP1 were obtained from American Type Culture Collection and cultured in DMEM supplemented with 10% fetal bovine serum. On attaining semi-confluence, cells were switched to serum free media and after 12 hours, cells were treated with different concentration of Iripallidal (in DMSO) in serum free media for 24 hours. […]
(§1) Cell viability was assessed using the [3-(4,5-dimethylthiazol-2-yl)-5-(3-carboxymethoxy-phenyl)-2-(4-sulfophenyl)-2H-tetrazolium, inner salt] […] After 4 hours of incubation the absorbance reflecting reduction of MTS by viable cells was determined at 490 nm. Values were expressed as a percentage relative to those obtained in controls.

[3] = test system: panel of 60 human cancer cell lines; conditions: NCI 60 cell line screen; cited from earlier work
[4] = test system: Ras; experiment: Ras activity (Ras-GTP pull-down with Raf-1 Ras binding domain) in glioma cells; assay type: cell-based, human; conditions: Iripallidal 20 μM, compared to the control
Method: In another embodiment the Ras activity was performed using a commercially available kit from Upstate Biotechnology (Temecula, Calif., USA). Briefly, glioma cell lines (2×10^6) treated with Iripallidal were lysed and the cleared lysates were incubated with bead-bound RAS binding domain of Raf-1 protein to precipitate Ras-GTP. The precipitates were subjected to SDS-PAGE and Western blotting.
Effect of Iripallidal on the level of GTP-bound Ras. The level of Ras-GTP in protein extracts of control and Iripallidal treated glioma cells was determined by the ability of Ras-GTP to bind to a specific protein domain of Raf in the form of a GST-fusion protein. […] IR1 denotes Iripallidal.

[5] = target: T1, RasGRP3 (Homo sapiens, UniProt Q8IV61); conditions: cited from earlier work
T1 sequence (Q8IV61 1-690): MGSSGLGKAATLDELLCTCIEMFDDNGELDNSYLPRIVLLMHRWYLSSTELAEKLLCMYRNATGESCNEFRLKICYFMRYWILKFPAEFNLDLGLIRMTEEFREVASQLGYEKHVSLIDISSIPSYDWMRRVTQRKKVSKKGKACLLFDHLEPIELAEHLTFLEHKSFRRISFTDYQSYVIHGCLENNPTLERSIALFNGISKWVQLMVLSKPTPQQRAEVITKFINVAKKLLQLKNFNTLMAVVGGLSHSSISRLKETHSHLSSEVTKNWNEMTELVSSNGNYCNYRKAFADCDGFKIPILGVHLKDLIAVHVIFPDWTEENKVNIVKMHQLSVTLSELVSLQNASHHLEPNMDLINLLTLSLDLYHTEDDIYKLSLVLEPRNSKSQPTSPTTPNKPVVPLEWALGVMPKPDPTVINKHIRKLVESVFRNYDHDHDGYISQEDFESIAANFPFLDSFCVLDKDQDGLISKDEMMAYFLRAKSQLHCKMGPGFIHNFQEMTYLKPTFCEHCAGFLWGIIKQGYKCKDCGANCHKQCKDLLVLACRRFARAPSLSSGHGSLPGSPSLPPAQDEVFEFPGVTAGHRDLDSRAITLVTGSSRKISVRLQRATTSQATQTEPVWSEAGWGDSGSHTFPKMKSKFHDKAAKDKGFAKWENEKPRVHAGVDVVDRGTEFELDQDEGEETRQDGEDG

[6] = test system: Ras; experiment: Western blot analysis of Ras expression in glioma cells; assay type: cell-based, human; conditions: GBM cell lines (A172, U87MG); Iripallidal 20 μM
Method: In another embodiment, protein isolated from glioma cells were treated with Iripallidal and electrophoresed on 6% to 10% polyacrylamide gel, Western blotting was performed and expression of Ras determined as described previously.
(§2) Glioblastoma cell lines U87MG, A172, T98G, and LN229; breast cancer cell line MCF7, cervical cancer cell line HeLa, hepatocellular carcinoma cell line HepG2, acute myeloid leukemia THP1, colon carcinoma cell line HT-29 and acute myeloid leukemic cell line THP1 were obtained from American Type Culture Collection and cultured in DMEM supplemented with 10% fetal bovine serum. On attaining semi-confluence, cells were switched to serum free media and after 12 hours, cells were treated with different concentration of Iripallidal (in DMSO) in serum free media for 24 hours. Following treatment, the cells were processed for Western blot analysis. DMSO treated cells were used as controls.
Protein from whole cell lysates were isolated as described previously. Twenty to fifty μg of protein isolated from cells treated with Iripallidal was electrophoresed on 6% to 10% polyacrylamide gel. Western blotting was performed and Ras expression was determined as described. The blots were stripped and reprobed with anti-β-actin to determine equivalent loading.

[7] = test system: normal human monocytes; experiment: MTS cell viability assay, normal human monocytes; assay type: cell-based; conditions: 24 hours, serum free media
Method: In another embodiment normal human monocytes were treated with different concentration of Iripallidal in serum free media for 24 hours and cell viability was assessed using the MTS assay. Values were expressed as a percentage relative to those obtained in controls.
Whole blood (5 ml) was drawn from normal human volunteers and mononuclear cells were separated by Histopaque density gradient centrifugation. Briefly, blood was diluted twice with phosphate buffered saline (PBS) and layered over Histopaque (Sigma, Mo., USA) and centrifuged at 1500 rpm for 20 mins at room temperature. Peripheral blood mononuclear cells (PBMC) were collected carefully at the interface of Histopaque and plasma, diluted five times with PBS and centrifuged at 1500 rpm for 10 mins. PBMC thus pelleted were washed twice with PBS and seeded onto glass petri dishes and allowed to adhere for 3 hrs. Non adherent cells were removed by gentle washing with PBS twice and the adherent monocytes were used in MTS assay.
Cell viability was assessed using the [3-(4,5-dimethylthiazol-2-yl)-5-(3-carboxymethoxy-phenyl)-2-(4-sulfophenyl)-2H-tetrazolium, inner salt] (MTS) as described earlier. […] After 4 hours of incubation the absorbance reflecting reduction of MTS by viable cells was determined at 490 nm. Values were expressed as a percentage relative to those obtained in controls.

[8] = target: protein kinase C alpha (Homo sapiens, UniProt P17252); conditions: cited from earlier work
[9] = test system: U87MG, A172, LN229 and T98G cells; experiment: MTS cell viability assay, glioma cell lines; assay type: cell-based, human; conditions: 24 hours, serum free media, in vitro
Method: In another embodiment GBM cell lines U87MG, A172, T98G, and LN229 were treated with different concentration of Iripallidal (in Dimethyl sulphoxide, DMSO) in serum free media for 24 hours and cell viability was assessed using the [3-(4,5-dimethylthiazol-2-yl)-5-(3-carboxymethoxy-phenyl)-2-(4-sulfophenyl)-2H-tetrazolium, inner salt] (MTS) assay. Values were expressed as percent cell viability relative to control.
as §2, with “DMSO treated cells were used as controls.” left out
as §1

Row | SMILES | phosphorylation of ERK1/2 [1] | phosphorylation of ERK1/2 ([1]; listed as NSC 631939) | proliferation of breast, colon, cervical, liver and myeloid cancer cells ([2]; 24 hours, serum free media) | reduction of proliferation of cancer cell lines ([2]; cancer cell lines, not specified further) | anti-proliferative activity [3] | Ras activity (Ras-GTP level) [4] | binding to RasGRP3 [5] | binding to RasGRP3 ([5]; listed as NSC 631939) | Ras levels [6] | viability of normal human monocytes [7] | binding to protein kinase C alpha [8] | viability of glioblastoma cell lines [9]
1 | CC1=CC[C@H](C)C(C)(C)C1/C=C/C(C)=C/CC[C@@]1(CO)[C@H](CCCO)/C(=C(/C)C=O)CC[C@]1(C)O (single isomer, unassigned; (-)) [Iripallidal] | induces phosphorylation of ERK1/2 in a Ras dependent manner | induced phosphorylation of ERK1/2 | inhibited the proliferation | 50-70% | micromolar to nanomolar range | An increase Ras activity was observed | binds to RasGRP3 | bound | elevated both Ras levels | does not effect the viability | bound | decreased the viability of glioblastoma cell lines significantly
2 | C=C(/C=C/C=C(/CCC=C(C)C)COC(C)=O)[C@@H]1CC[C@]2([C@H](CCCO)/C(=C(/C)C=O)CC[C@]2(C)O)[C@@H]1O [NSC 631941, reference compound] | induced phosphorylation of ERK1/2 |  |  |  |  |  | bound |  |  |  | bound | 
